The target of one data set is Cytochrome P450 3A4 (Homo sapiens, UniProt P08684). Kind of data set: Inhibition of human CYP3A4 assessed as terfenadine hydroxylation after 20 mins by LC-MS/MS analysis. It is filed as ADME.
In a further data set the target is Cytochrome P450 2D6 (Homo sapiens, UniProt P10635). Briefly: Inhibition of human CYP2D6 assessed as dextromethorphan O-demethylation after 20 mins by LC-MS/MS analysis. Format: ADME.
A further data set concerns the target Cytochrome P450 2C9 (Homo sapiens, UniProt P11712). Briefly: Inhibition of human CYP2C9 assessed as tolbutamide hydroxylation after 20 mins by LC-MS/MS analysis. It is filed as ADME.
For another data set, the target named is T1, Cytochrome P450 1A2 (Homo sapiens, UniProt P05177).
T1 sequence (P05177 whole entry): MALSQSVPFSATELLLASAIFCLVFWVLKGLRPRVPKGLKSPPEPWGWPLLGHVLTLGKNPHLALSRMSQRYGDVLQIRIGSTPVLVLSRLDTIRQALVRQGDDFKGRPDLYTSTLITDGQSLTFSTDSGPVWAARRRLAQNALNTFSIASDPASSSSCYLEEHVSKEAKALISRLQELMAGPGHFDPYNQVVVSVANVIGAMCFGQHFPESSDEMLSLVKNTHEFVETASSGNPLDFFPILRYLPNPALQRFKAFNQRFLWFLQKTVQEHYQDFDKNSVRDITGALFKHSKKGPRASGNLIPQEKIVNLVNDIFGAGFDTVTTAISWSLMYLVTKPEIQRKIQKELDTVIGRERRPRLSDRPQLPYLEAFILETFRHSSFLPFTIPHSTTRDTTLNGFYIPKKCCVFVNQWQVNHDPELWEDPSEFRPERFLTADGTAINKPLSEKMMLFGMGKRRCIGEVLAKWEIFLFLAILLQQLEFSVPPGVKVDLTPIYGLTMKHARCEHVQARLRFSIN
Briefly: Inhibition of human CYP1A2 assessed as ethoxyresorufin O-deethylation after 20 mins by fluorescence plate reader. It is filed as ADME.

A short description of data set [1]: AUC (infinity) in ICR mouse at 5.56 mg/kg, po by LC-MS/MS analysis. It is filed as ADME, organism-based. To be noted: plasma. Also on record: time infinity, dose 5.56 mg/kg, route oral.
The nature of data set [2]: Cmax in ICR mouse at 5.56 mg/kg, po by LC-MS/MS analysis. Format: ADME, organism-based. Also on record: dose 5.56 mg/kg, route oral. To be noted: in vivo.
A short description of data set [3]: Tmax in ICR mouse at 5.56 mg/kg, po by LC-MS/MS analysis. Also on record: dose 5.56 mg/kg, route oral. It is filed as ADME, organism-based. To be noted: in vivo.
For data set [4], the system named is Staphylococcus aureus. Briefly: Potency index, ratio of linezolid ED50 to compound ED50 for methicillin-resistant Staphylococcus aureus SR3637 in po dosed JCL/ICR mouse systemic infection model. Format: functional.
In a further data set the target is T2, MAO-A (Rattus norvegicus, UniProt P21396).
T2 sequence (P21396 whole entry): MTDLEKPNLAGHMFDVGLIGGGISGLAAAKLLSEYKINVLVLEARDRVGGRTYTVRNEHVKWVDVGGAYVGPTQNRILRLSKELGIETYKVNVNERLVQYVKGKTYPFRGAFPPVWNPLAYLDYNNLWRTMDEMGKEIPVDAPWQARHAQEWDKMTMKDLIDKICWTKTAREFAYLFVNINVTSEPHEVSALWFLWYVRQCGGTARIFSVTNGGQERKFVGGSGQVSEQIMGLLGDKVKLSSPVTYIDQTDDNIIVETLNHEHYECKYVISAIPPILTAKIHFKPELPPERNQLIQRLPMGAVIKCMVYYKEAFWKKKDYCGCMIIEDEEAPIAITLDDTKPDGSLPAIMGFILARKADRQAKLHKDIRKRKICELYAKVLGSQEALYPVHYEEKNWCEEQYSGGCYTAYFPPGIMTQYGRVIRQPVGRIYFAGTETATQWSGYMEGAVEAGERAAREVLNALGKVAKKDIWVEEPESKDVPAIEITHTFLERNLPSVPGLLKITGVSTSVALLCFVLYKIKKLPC
Kind of data set: Inhibition of rat forebrain MAO-A using [14C]5-HT as substrate at 30 uM preincubated for 20 mins followed by substrate addition measured after 5 mins by liquid scintillation counting analysis. Particulars: probe [14C]5-HT.

Another data set has as its target T3, MAO-B (Rattus norvegicus, UniProt P19643).
T3 sequence (P19643 whole entry): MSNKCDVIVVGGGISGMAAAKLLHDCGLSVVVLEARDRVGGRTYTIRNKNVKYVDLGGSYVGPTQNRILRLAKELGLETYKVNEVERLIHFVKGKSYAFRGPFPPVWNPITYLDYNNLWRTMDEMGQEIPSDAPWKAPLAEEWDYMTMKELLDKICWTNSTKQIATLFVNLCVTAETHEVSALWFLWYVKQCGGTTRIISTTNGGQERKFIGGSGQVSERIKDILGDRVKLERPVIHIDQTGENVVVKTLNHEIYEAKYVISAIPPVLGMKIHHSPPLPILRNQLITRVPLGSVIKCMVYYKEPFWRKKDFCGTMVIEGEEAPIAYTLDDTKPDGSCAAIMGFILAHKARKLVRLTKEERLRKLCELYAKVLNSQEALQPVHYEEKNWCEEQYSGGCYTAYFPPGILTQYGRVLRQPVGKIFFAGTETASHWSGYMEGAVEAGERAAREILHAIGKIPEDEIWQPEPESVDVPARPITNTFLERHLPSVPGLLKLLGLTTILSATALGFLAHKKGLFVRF
Briefly: Inhibition of rat forebrain MAO-B using [14C]PEA as substrate at 30 uM preincubated for 20 mins followed by substrate addition measured after 10 mins by liquid scintillation counting analysis. Particulars: probe [14C]PEA.

Data set [5] relates to Staphylococcus aureus. Briefly: Antibacterial activity against methicillin-resistant Staphylococcus aureus SR3637 clinical isolate infected in po dosed JCL/ICR systemic infection model assessed as mortality administered after 1 hr of infection measured for 7 days. It is filed as functional.
Data set [6] has as its system Staphylococcus aureus. Kind of data set: Antibacterial activity against methicillin-resistant Staphylococcus aureus SR3637 clinical isolate infected in iv dosed JCL/ICR systemic infection model assessed as mortality administered after 1 hr of infection measured for 7 days. Format: functional.
The subject of data set [7] is Staphylococcus aureus. Briefly: Ratio of linezolid MIC to compound MIC for Staphylococcus aureus Smith clinical isolate. Format: functional.
In data set [8] the test system is Staphylococcus aureus. Kind of data set: Ratio of linezolid MIC to compound MIC for Staphylococcus aureus SR20549 clinical isolate. It is filed as functional.
The next data set relates to Haemophilus influenzae. Kind of data set: Antibacterial activity against Haemophilus influenzae SR27914 clinical isolate assessed as […] by CLSI broth microdilution method. It is filed as functional.
The subject of data set [9] is Streptococcus pneumoniae. Kind of data set: Antibacterial activity against penicillin-resistant Streptococcus pneumoniae SR11031 clinical isolate assessed as […] by CLSI broth microdilution method. It is filed as functional. In general terms: Broth dilution looks for growth in wells or tubes with falling amounts of substance.
Data set [10] has as its system Streptococcus pneumoniae. Kind of data set: Antibacterial activity against Streptococcus pneumoniae SR26207 clinical isolate assessed as […] by CLSI broth microdilution method. It is filed as functional.
In the next data set the test system is Moraxella catarrhalis. Kind of data set: Antibacterial activity against Moraxella catarrhalis SR26840 clinical isolate assessed as […] by CLSI broth microdilution method. It is filed as functional.
The next data set relates to Enterococcus faecium. Briefly: Antibacterial activity against Enterococcus faecium SR7940 clinical isolate assessed as […] by CLSI broth microdilution method. Format: functional.
A further data set concerns Enterococcus faecalis. Briefly: Antibacterial activity against Enterococcus faecalis SR1004 clinical isolate assessed as […] by CLSI broth microdilution method. Format: functional.
Data set [11] concerns Staphylococcus aureus. Briefly: Antibacterial activity against linezolid-resistant Staphylococcus aureus NRS271 clinical isolate harboring G2576T mutation in peptidyl transferase center domain V of 23S rRNA gene assessed as […] by CLSI broth microdilution method. Format: functional.
Data set [12] has as its system Staphylococcus aureus. Kind of data set: Antibacterial activity against methicillin-resistant Staphylococcus aureus SR3637 clinical isolate assessed as […] by CLSI broth microdilution method. Format: functional.
The subject of data set [13] is Staphylococcus aureus. Kind of data set: Antibacterial activity against Staphylococcus aureus Smith clinical isolate assessed as […] by CLSI broth microdilution method. It is filed as functional.
Data set [14] relates to Staphylococcus aureus. Briefly: Antibacterial activity against Staphylococcus aureus SR20549 clinical isolate assessed as […] by CLSI broth microdilution method. Format: functional.
Data set [15] can be described thus: AUC (infinity) in ICR mouse at 67.7 mg/kg, po by LC-MS/MS analysis. It is filed as ADME, organism-based. The arrangement: time infinity, dose 67.7 mg/kg, route oral. To be noted: plasma.
The nature of data set [16]: Cmax in ICR mouse at 67.7 mg/kg, po by LC-MS/MS analysis. It is filed as ADME, organism-based. Also on record: dose 67.7 mg/kg, route oral. Particulars: in vivo.
Data set [17] can be described thus: Tmax in ICR mouse at 67.7 mg/kg, po by LC-MS/MS analysis. The arrangement: dose 67.7 mg/kg, route oral. It is filed as ADME, organism-based. To be noted: in vivo.

Each structure is given as a SMILES string. Values after ≈ are worked out from the molar mass of the structure shown. Bounds are passed on as bounds.

Chain of Cytochrome P450 2C9 (P11712 whole entry): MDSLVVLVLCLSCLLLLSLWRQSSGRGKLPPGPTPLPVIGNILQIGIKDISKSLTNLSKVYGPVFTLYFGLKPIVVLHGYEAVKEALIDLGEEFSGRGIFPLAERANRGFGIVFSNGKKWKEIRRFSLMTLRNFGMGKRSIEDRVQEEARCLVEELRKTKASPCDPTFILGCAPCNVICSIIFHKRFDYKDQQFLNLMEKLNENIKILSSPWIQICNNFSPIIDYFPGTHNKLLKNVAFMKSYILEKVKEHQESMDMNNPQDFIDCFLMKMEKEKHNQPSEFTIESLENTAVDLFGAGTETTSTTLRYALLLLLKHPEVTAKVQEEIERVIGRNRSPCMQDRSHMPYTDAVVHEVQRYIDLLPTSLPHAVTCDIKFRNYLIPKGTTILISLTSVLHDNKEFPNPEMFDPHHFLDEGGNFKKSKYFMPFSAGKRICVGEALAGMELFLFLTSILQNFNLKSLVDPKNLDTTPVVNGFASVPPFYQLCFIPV
Chain of Cytochrome P450 3A4 (P08684 whole entry): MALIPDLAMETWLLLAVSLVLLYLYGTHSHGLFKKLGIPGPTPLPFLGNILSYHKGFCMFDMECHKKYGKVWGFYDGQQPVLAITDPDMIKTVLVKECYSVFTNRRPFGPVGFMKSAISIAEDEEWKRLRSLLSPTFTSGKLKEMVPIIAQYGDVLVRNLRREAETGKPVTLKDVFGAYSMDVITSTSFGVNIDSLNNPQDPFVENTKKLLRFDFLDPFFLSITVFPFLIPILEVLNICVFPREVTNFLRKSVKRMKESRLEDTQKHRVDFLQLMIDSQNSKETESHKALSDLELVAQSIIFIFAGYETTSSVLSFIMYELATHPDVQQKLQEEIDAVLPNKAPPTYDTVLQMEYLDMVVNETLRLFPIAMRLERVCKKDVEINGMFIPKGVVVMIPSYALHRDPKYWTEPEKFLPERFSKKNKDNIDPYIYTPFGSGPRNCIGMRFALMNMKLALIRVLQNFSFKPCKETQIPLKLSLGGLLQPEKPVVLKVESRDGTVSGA
Chain of Cytochrome P450 2D6 (P10635 whole entry): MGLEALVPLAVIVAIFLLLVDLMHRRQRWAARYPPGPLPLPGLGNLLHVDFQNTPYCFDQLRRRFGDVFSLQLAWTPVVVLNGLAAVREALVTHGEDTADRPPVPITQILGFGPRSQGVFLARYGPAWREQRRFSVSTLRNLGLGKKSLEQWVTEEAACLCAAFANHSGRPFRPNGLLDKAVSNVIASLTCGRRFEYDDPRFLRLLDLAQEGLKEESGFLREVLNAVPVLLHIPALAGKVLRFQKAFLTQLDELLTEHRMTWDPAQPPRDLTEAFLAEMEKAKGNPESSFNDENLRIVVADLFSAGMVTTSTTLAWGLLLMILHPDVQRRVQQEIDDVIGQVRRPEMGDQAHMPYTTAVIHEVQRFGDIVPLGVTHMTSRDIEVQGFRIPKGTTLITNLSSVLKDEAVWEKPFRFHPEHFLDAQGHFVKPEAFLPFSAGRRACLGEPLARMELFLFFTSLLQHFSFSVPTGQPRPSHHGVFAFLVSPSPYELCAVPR

The term IC50 denotes the midpoint of a concentration-inhibition curve. The term AUC(0-inf) denotes total exposure, with the tail of the curve extrapolated. A lower AUC(0-inf) goes with less exposure. In general, Cmax refers to the maximum level reached in the sampled fluid or tissue. Broadly, the Tmax is the time from dosing to the highest level. In general, inhibition refers to the drop in the measured response relative to a control, in per cent. A low value points to little suppression. A word on the ED50: it is the midpoint of the dose-response relation. In the case of `CC(=O)NC[C@H]1CN(c2ccc(-c3ccn4ncnc4c3)c(F)c2)C(=O)O1`, the IC50 at Cytochrome P450 3A4, at Cytochrome P450 2D6, at Cytochrome P450 2C9 and on Cytochrome P450 1A2 was greater than 20 µM each time. Also, in data set [1], the AUC(0-inf) is 30900 ng·h/mL. Moreover, in data set [2], the peak concentration (Cmax) stood at 4780 ng/mL. Besides, the time to peak (Tmax) in [3] worked out at 60 min. For the same compound, in the data set with Staphylococcus aureus [4], the “Ratio ED50” value turned out to be 4. At MAO-A, this compound came in with an inhibition at 5 min, 30 µM of 55.9%. Further, the inhibition at 10 min, 30 µM against MAO-B amounted to 78.2%. For the same compound, the ED50 in the data set on Staphylococcus aureus [5] was determined as 0.55 mg/kg; in the data set with Staphylococcus aureus [6], 0.34 mg/kg. Also, the figures for the Ratio with Staphylococcus aureus [7] and in the data set with Staphylococcus aureus [8] were 4 and 2, respectively. Moreover, the MIC in the data set on Haemophilus influenzae was 4 µg/mL (≈ 10.8 µM); in the data set with Streptococcus pneumoniae [9], no more than 0.063 µg/mL; in the data set with Streptococcus pneumoniae [10], no more than 0.063 µg/mL; with Moraxella catarrhalis it was 4 µg/mL (≈ 10.8 µM); in the data set on Enterococcus faecium it was 0.25 µg/mL (≈ 0.677 µM); with Enterococcus faecalis, 0.25 µg/mL (≈ 0.677 µM). Further, the MIC amounted to 4 µg/mL (≈ 10.8 µM) with Staphylococcus aureus [11], 0.25 µg/mL (≈ 0.677 µM) in the data set on Staphylococcus aureus [12], 0.5 µg/mL (≈ 1.35 µM) in the data set on Staphylococcus aureus [13] and 0.25 µg/mL (≈ 0.677 µM) with Staphylococcus aureus [14].
In the case of `CC(=O)NC[C@H]1CN(c2ccc(N3CCOCC3)c(F)c2)C(=O)O1` [LINEZOLID], the 50% inhibitory concentration (IC50) on Cytochrome P450 3A4, at Cytochrome P450 2D6, on Cytochrome P450 2C9 and on Cytochrome P450 1A2 was greater than 20 µM throughout. Also, the AUC(0-inf) in data set [15] is 162000 ng·h/mL. In [16], this compound displayed a maximum concentration (Cmax) of 37000 ng/mL. The time to peak (Tmax) in [17] worked out at 30 min. For the same compound, the ED50 in the data set on Staphylococcus aureus [5] stood at 1.98 mg/kg. Also, the MIC in the data set with Haemophilus influenzae came out at 16 µg/mL (≈ 47.4 µM); with Moraxella catarrhalis, 8 µg/mL (≈ 23.7 µM); in the data set on Enterococcus faecium it was 2 µg/mL (≈ 5.93 µM); in the data set with Staphylococcus aureus [11] it was 32 µg/mL (≈ 94.9 µM).

The values are drawn from ChEMBL document CHEMBL3091359, “Potent oxazolidinone antibacterials with heteroaromatic C-ring substructure” (ACS Med Chem Lett, 2013).
